From PubChem BioAssay (NCI)
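96-well plates; 48 h exposure; 5 concentrations. Endpoints by linear interpolation between flanking doses. Not reached: highest tested concentration assigned. TGI is the concentration that stops growth completely.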

How the values were obtained:
Assay in all cases: inhibition of tumour cell growth, NCI panel, 48 h
786-0 renal = tested on: 786-0 renal
ACHN renal = tested on: ACHN renal
COLO 205 colon = tested on: COLO 205 colon
EKVX NSCLC = tested on: EKVX NSCLC
HCC-2998 colon = tested on: HCC-2998 colon
HCT-15 colon = tested on: HCT-15 colon
HOP-92 NSCLC = tested on: HOP-92 NSCLC
MDA-MB-231 breast = tested on: MDA-MB-231 breast
OVCAR-3 ovarian = tested on: OVCAR-3 ovarian
SF-539 CNS = tested on: SF-539 CNS
SK-MEL-28 melanoma = tested on: SK-MEL-28 melanoma
U251 CNS = tested on: U251 CNS
HS 578T breast = tested on: HS 578T breast
MALME-3M melanoma = tested on: MALME-3M melanoma

SMILES: COc1cccc(-c2cccc(SC)n2)n1
- TGI (786-0 renal): 88.3 µM
- TGI (ACHN renal): > 100 µM
- TGI (COLO 205 colon): 40.2 µM
- TGI (EKVX NSCLC): 97.3 µM
- TGI (HCC-2998 colon): 75.5 µM
- TGI (HCT-15 colon): > 100 µM
- TGI (HOP-92 NSCLC): 67.4 µM
- TGI (MDA-MB-231 breast): > 100 µM
- TGI (OVCAR-3 ovarian): 61.1 µM
- TGI (SF-539 CNS): > 100 µM
- TGI (SK-MEL-28 melanoma): > 100 µM
- TGI (U251 CNS): > 100 µM

SMILES: O=C1/C(=C/c2ccc(Cl)cc2)NC(=S)N1CN1CCOCC1
- TGI (786-0 renal): > 100 µM
- TGI (ACHN renal): > 100 µM
- TGI (COLO 205 colon): > 100 µM
- TGI (EKVX NSCLC): > 100 µM
- TGI (HCT-15 colon): > 100 µM
- TGI (HOP-92 NSCLC): > 100 µM
- TGI (HS 578T breast): > 100 µM
- TGI (MALME-3M melanoma): > 100 µM
- TGI (MDA-MB-231 breast): > 100 µM
- TGI (OVCAR-3 ovarian): > 100 µM
- TGI (SK-MEL-28 melanoma): > 100 µM
- TGI (U251 CNS): > 100 µM

SMILES: Cc1nccc2c1cnc1ccnn12
- TGI (786-0 renal): > 100 µM
- TGI (ACHN renal): > 100 µM
- TGI (COLO 205 colon): > 100 µM
- TGI (EKVX NSCLC): > 100 µM
- TGI (HCC-2998 colon): > 100 µM
- TGI (HCT-15 colon): > 100 µM
- TGI (HOP-92 NSCLC): > 100 µM
- TGI (MALME-3M melanoma): > 100 µM
- TGI (OVCAR-3 ovarian): > 100 µM
- TGI (SF-539 CNS): > 100 µM
- TGI (SK-MEL-28 melanoma): > 100 µM
- TGI (U251 CNS): > 100 µM

SMILES: CC1=Nc2c([nH]c(=S)[nH]c2=O)NC(c2ccc(Cl)c(Cl)c2)C1 (stereo unspecified)
- TGI (786-0 renal): 32.5 µM
- TGI (ACHN renal): > 100 µM
- TGI (COLO 205 colon): 32.7 µM
- TGI (EKVX NSCLC): > 68.3 µM
- TGI (HCC-2998 colon): 32 µM
- TGI (HCT-15 colon): > 60.1 µM
- TGI (HOP-92 NSCLC): > 100 µM
- TGI (MALME-3M melanoma): > 100 µM
- TGI (OVCAR-3 ovarian): 38.3 µM
- TGI (SF-539 CNS): 46.5 µM
- TGI (SK-MEL-28 melanoma): 36.7 µM
- TGI (U251 CNS): 31.1 µM

SMILES: COc1ccc(Nc2nc(N)c(C(=O)c3ccc(OC)cc3)s2)cc1
- TGI (786-0 renal): > 41.9 µM
- TGI (COLO 205 colon): > 100 µM
- TGI (EKVX NSCLC): > 89.1 µM
- TGI (HCC-2998 colon): > 29.7 µM
- TGI (HCT-15 colon): > 100 µM
- TGI (HOP-92 NSCLC): > 86.5 µM
- TGI (MDA-MB-231 breast): > 72.4 µM
- TGI (OVCAR-3 ovarian): 2.1 µM
- TGI (SF-539 CNS): 23 µM
- TGI (SK-MEL-28 melanoma): > 68.6 µM
- TGI (U251 CNS): 17.2 µM

SMILES: CCOC(=O)C1=C(O)c2ccccc2C(=O)C1=O
- TGI (786-0 renal): > 100 µM
- TGI (ACHN renal): > 100 µM
- TGI (COLO 205 colon): > 100 µM
- TGI (EKVX NSCLC): > 100 µM
- TGI (HCC-2998 colon): > 100 µM
- TGI (HCT-15 colon): > 100 µM
- TGI (HOP-92 NSCLC): > 100 µM
- TGI (MALME-3M melanoma): > 100 µM
- TGI (OVCAR-3 ovarian): > 100 µM
- TGI (SF-539 CNS): > 100 µM
- TGI (SK-MEL-28 melanoma): > 100 µM
- TGI (U251 CNS): > 100 µM

SMILES: CO[C@@](c1ccccc1)(c1nc(C#N)c(N)o1)C(F)(F)F
- TGI (786-0 renal): > 100 µM
- TGI (ACHN renal): > 100 µM
- TGI (COLO 205 colon): > 100 µM
- TGI (EKVX NSCLC): > 100 µM
- TGI (HCC-2998 colon): > 100 µM
- TGI (HCT-15 colon): > 100 µM
- TGI (HOP-92 NSCLC): > 100 µM
- TGI (MALME-3M melanoma): > 100 µM
- TGI (MDA-MB-231 breast): > 100 µM
- TGI (OVCAR-3 ovarian): > 100 µM
- TGI (SF-539 CNS): > 100 µM
- TGI (SK-MEL-28 melanoma): > 100 µM
- TGI (U251 CNS): > 100 µM

SMILES: O=c1n(-c2ccccc2)c(=O)n2n1C1CCC2CC1
- TGI (786-0 renal): > 100 µM
- TGI (ACHN renal): > 100 µM
- TGI (COLO 205 colon): > 100 µM
- TGI (EKVX NSCLC): > 100 µM
- TGI (HCT-15 colon): > 100 µM
- TGI (HOP-92 NSCLC): > 100 µM
- TGI (HS 578T breast): > 100 µM
- TGI (MDA-MB-231 breast): > 100 µM
- TGI (OVCAR-3 ovarian): > 100 µM
- TGI (SF-539 CNS): > 100 µM
- TGI (SK-MEL-28 melanoma): > 100 µM
- TGI (U251 CNS): > 100 µM
